In the first test the target is Plasma kallikrein (Homo sapiens, UniProt P03952). The test can be described thus: (§1) In-vitro Plasma Kallikrein Inhibition: Enzymatic reactions were conducted in ⿿assay buffer⿿, comprising 50 mM Hepes/NaOH at pH 7.8, 150 mM NaCl, 1 mM EDTA and 0.05% (w/v) CHAPS. For the determination of IC50 values, the assays were performed at room temperature in 384-well plates with a total assay volume of 25.25 ul per well. The test compound was dissolved in 90% (v/v) DMSO/water. For the assays, 250 nL of the 90% (v/v) DMSO/water solution or compound solution were added per well, followed by the addition of 12.5 ul protease solution (protease in assay buffer). The final assay concentration of the human plasma kallikrein was nominally 25 pM, the 11 compound concentrations in the dilution series were in the range form 1 nM to 100 uM. After 1 hour of pre-incubation at room temperature, the reactions were started by the addition of 12.5 ul substrate solution (in assay buffer, final assay concentration was 0.5 uM). After the addition of the substrate solution, the final DMSO concentration in the assay was 0.9% (v/v). It is filed as cell-free.
Sequence of Plasma kallikrein (P03952 20-390 limits assumed): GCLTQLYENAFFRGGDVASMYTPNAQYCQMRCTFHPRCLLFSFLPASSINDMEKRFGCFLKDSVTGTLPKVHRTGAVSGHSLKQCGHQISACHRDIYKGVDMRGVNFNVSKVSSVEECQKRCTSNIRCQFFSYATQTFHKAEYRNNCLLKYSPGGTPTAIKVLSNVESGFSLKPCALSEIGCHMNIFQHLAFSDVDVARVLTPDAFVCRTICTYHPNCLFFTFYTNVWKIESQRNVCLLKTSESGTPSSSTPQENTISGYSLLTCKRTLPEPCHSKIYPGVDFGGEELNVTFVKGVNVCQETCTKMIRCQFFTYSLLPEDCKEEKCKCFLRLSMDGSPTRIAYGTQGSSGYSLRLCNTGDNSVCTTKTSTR
Sequence of Plasma kallikrein (P03952 391-638 limits assumed): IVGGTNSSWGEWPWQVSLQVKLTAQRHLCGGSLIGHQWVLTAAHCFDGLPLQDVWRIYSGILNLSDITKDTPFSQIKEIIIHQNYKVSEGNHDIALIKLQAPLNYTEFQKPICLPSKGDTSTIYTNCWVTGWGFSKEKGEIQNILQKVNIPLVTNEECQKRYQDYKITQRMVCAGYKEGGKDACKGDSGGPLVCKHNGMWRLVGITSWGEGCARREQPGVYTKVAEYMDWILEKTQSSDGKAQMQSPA
The molecule `Cc1cc(N)nc(C)c1CNC(=O)c1nnn(Cc2ccccc2)c1C` registered an IC50 of 52100 nM.

For the molecule `COc1cc(Cn2cc(C(=O)NCc3c(C)cc(N)nc3C)cn2)ccc1Cn1cccn1`, the midpoint of inhibition, the IC50, lay at 0.0912 nM. The same measure, in the same setting: for `COc1ccc2cc(Cn3cc(C(=O)NCc4c(C)cc(N)nc4C)cn3)ccc2c1` the value was 5 nM. The molecule `Cc1cc(N)nc(C)c1CNC(=O)c1cn(Cc2ccc(-c3ccccc3)cc2)nn1` yielded an IC50 of 30 nM. Still for that read-out and setting: for `Cc1cc(N)nc(C)c1CNC(=O)c1nc(Cc2ccccc2)n(C)n1` the value was 7670 nM; for `Cc1cc(N)nc(C)c1CNC(=O)c1cc(C)n(Cc2ccco2)c1C`, 739 nM; for `Cc1cc(N)nc(C)c1CNC(=O)c1cnn(Cc2ccc(CO)cc2)c1`, 150 nM. In the case of `CNC(=O)COc1cc(N)nc(C)c1CNC(=O)c1cnn(Cc2ccccc2)c1`, the IC50 was 70 nM.

System in a further test: not listed separately
The description is as §1.
Take `Cc1nc(N)cc(OCC(=O)C(C)(C)C)c1CNC(=O)c1cn(Cc2ccccc2)nn1`: 24 nM corresponded to half-maximal inhibition (IC50).

The term IC50 denotes the concentration that gives 50% inhibition.

The values are drawn from ChEMBL document CHEMBL3886577, “N-((6-amino-pyridin-3-yl)methyl)-heteroaryl-carboxamides” (2016).
